Laboratory results as given in DBAASP.
≈ marks a conversion by molar mass, not a printed value. One block for each compound: values may come before it.

Key:
Test in all cases: ≥ marks a high value that may be exact or a test limit, other limits are often not marked, values filed in µg/mL are converted to µM
[1] = system: Candida albicans NCPF 1467
[2] = system: Staphylococcus aureus NCTC 10788
[3] = system: Bacillus subtilis ATCC 6633
[4] = system: Escherichia coli ATCC 25922
[5] = system: Listeria monocytogenes ATCC 7644
[6] = system: Salmonella enterica subsp. enterica serovar Typhi ATCC 6399
Shigella flexneri = system: Shigella flexneri
[7] = system: Staphylococcus aureus ATCC 25923
Streptococcus agalactiae = system: Streptococcus agalactiae
[8] = system: Candida albicans ATCC 20032
[9] = system: Acinetobacter baumannii NM35
[10] = system: Acinetobacter baumannii NM8
[11] = system: Escherichia coli ATCC 25726
[12] = system: Staphylococcus aureus 127/08
[13] = system: Stenotrophomonas maltophilia B32/1
[14] = system: Stenotrophomonas maltophilia B32/4
[15] = system: Corynebacterium xerosis C875
Escherichia coli DC2 = system: Escherichia coli DC2
Escherichia coli UB1005 = system: Escherichia coli UB1005
[16] = system: Pseudomonas aeruginosa ATCC 27853
[17] = system: Staphylococcus epidermidis C621
Bacillus subtilis = system: Bacillus subtilis
[18] = system: Candida albicans ATCC 90028
Enterobacter cloacae = system: Enterobacter cloacae
Escherichia coli = system: Escherichia coli
Pseudomonas aeruginosa = system: Pseudomonas aeruginosa
[19] = system: Salmonella enterica subsp. enterica serovar Typhi
Staphylococcus aureus = system: Staphylococcus aureus
[20] = system: Bacillus pumilus CVCC 709
[21] = system: Bacillus subtilis CVCC 717
[22] = system: Escherichia coli CVCC 1570
[23] = system: Micrococcus luteus CVCC 1600
[24] = system: Staphylococcus aureus CVCC 1882

MIC [1]: ≥ 120 µM | MIC [2]: 16 µM (≈ 31.6 µg/mL)
Structure (SMILES): CC[C@H](C)[C@H](NC(=O)[C@H](C)NC(=O)CNC(=O)[C@H](CC(C)C)NC(=O)[C@@H](N)Cc1ccccc1)C(=O)N[C@@H](C)C(=O)N[C@@H](C)C(=O)N[C@@H](C)C(=O)N[C@@H](CC(C)C)C(=O)N1CCC[C@H]1C(=O)N[C@@H](Cc1cnc[nH]1)C(=O)N[C@H](C(=O)N[C@H](C(=O)N[C@@H](CC(N)=O)C(=O)N[C@@H](C)C(=O)N[C@H](C(=O)N[C@H](C(=O)N[C@@H](CC(N)=O)C(=O)N[C@@H](C)C(=O)N[C@@H](CC(C)C)C(=O)O)[C@@H](C)O)C(C)C)[C@@H](C)CC)C(C)C [FLGAIAAALPHVINAVTNAL]

MIC [3]: ≥ 37.5 µM | MIC [4]: 37.5 µM (≈ 102 µg/mL) | MIC [5]: ≥ 37.5 µM | MIC [6]: ≥ 37.5 µM | MIC (Shigella flexneri): ≥ 37.5 µM | MIC [7]: 75 µM (≈ 205 µg/mL) | MIC (Streptococcus agalactiae): ≥ 37.5 µM
Structure (SMILES): CC[C@H](C)[C@H](NC(=O)[C@H](CC(C)C)NC(=O)[C@H](CCCCN)NC(=O)[C@H](CC(C)C)NC(=O)[C@H](C)NC(=O)CNC(=O)[C@H](CCCCN)NC(=O)[C@H](C)NC(=O)[C@H](CC(C)C)NC(=O)[C@H](C)NC(=O)CNC(=O)[C@H](Cc1c[nH]c2ccccc12)NC(=O)[C@@H](N)Cc1ccccc1)C(=O)NCC(=O)N[C@H](C(=O)NCC(=O)N[C@@H](CO)C(=O)N[C@@H](CC(C)C)C(=O)N[C@@H](Cc1ccccc1)C(=O)N[C@@H](CO)C(=O)N[C@@H](CO)C(=O)N[C@@H](Cc1ccccc1)C(=O)N[C@@H](CO)C(=O)N[C@@H](CCCCN)C(=O)N[C@@H](CCCCN)C(=O)N[C@@H](CC(=O)O)C(=O)O)C(C)C [FWGALAKGALKLIGVGSLFSSFSKKD]

MIC [3]: ≥ 41.2 µM | MIC [8]: ≥ 41.2 µM | MIC [4]: > 41.2 µM | MIC [7]: 30.9 µM (≈ 75 µg/mL)
Structure (SMILES): CC[C@H](C)[C@H](NC(=O)CN)C(=O)NCC(=O)NCC(=O)N[C@@H](C)C(=O)N[C@@H](CC(C)C)C(=O)N[C@@H](CC(C)C)C(=O)N[C@@H](CO)C(=O)N[C@H](C(=O)NCC(=O)N[C@@H](CCCCN)C(=O)N[C@@H](CO)C(=O)N[C@@H](C)C(=O)N[C@@H](CC(C)C)C(=O)N[C@@H](CCCCN)C(=O)NCC(=O)N[C@@H](CC(C)C)C(=O)N[C@H](C(=O)N[C@@H](CCCCN)C(=O)NCC(=O)N[C@@H](CC(C)C)C(=O)N[C@@H](C)C(=O)N[C@@H](CCC(=O)O)C(=O)N[C@@H](Cc1cnc[nH]1)C(=O)N[C@@H](Cc1ccccc1)C(N)=O)[C@@H](C)O)C(C)C [GIGGALLSVGKSALKGLTKGLAEHF]

MIC [9]: ≥ 200 µM | MIC [10]: ≥ 200 µM | MIC [11]: ≥ 200 µM | MIC [12]: ≥ 200 µM | MIC [7]: > 200 µM | MIC [13]: ≥ 200 µM | MIC [14]: ≥ 200 µM
Structure (SMILES): CC[C@H](C)[C@@H]1NC(=O)[C@H](CCCCN)NC(=O)[C@@H](NC(=O)[C@H](C)NC(=O)[C@@H](NC(=O)[C@H](CC(C)C)NC(=O)[C@H](CC(=O)O)NC(=O)[C@@H](NC(=O)CNC(=O)[C@H](CC(C)C)NC(=O)[C@H](CCCCN)NC(=O)[C@H](C)NC(=O)[C@H](CC(C)C)NC(=O)[C@H](CC(=O)O)NC(=O)[C@H](CCCCN)NC(=O)CNC(=O)[C@H](CC(C)C)NC(=O)CN)C(C)C)C(C)C)CSSC[C@@H](C(=O)O)NC(=O)[C@H](CCC(N)=O)NC(=O)[C@H](CCCCN)NC(=O)[C@H](CO)NC1=O [GLGKDLAKLGVDLVACKISKQC]

MIC [3]: ≥ 49.8 µM | MIC [8]: ≥ 49.8 µM | MIC [4]: > 49.8 µM | MIC [7]: > 49.8 µM
Structure (SMILES): CC[C@H](C)[C@H](N)C(=O)N[C@@H](CC(C)C)C(=O)NCC(=O)N[C@@H](CC(C)C)C(=O)N[C@H](C(=O)N[C@H](C(=O)N[C@@H](CO)C(=O)N[C@H](C(=O)N[C@H](C(=O)NCC(=O)N[C@@H](CC(N)=O)C(=O)N[C@H](C(=O)N[C@@H](CC(C)C)C(=O)NCC(=O)NCC(=O)N[C@@H](CC(C)C)C(=O)N[C@@H](CC(C)C)C(=O)N[C@@H](CCCCN)C(=O)N[C@@H](CC(N)=O)C(=O)N[C@@H](CC(C)C)C(N)=O)C(C)C)[C@@H](C)CC)[C@@H](C)O)[C@@H](C)CC)C(C)C [ILGLVISTIGNVLGGLLKNL]

MIC [15]: 0.5 µM (≈ 0.918 µg/mL) | MIC [4]: 16 µM (≈ 29.4 µg/mL) | MIC (Escherichia coli DC2): 0.5 µM (≈ 0.918 µg/mL) | MIC (Escherichia coli UB1005): 2 µM (≈ 3.67 µg/mL) | MIC [16]: 16 µM (≈ 29.4 µg/mL) | MIC [17]: 8 µM (≈ 14.7 µg/mL)
Structure (SMILES): C[C@H](NC(=O)[C@H](C)NC(=O)[C@H](C)NC(=O)[C@H](Cc1c[nH]c2ccccc12)NC(=O)[C@H](Cc1ccccc1)NC(=O)[C@H](C)NC(=O)[C@H](C)NC(=O)[C@H](C)NC(=O)[C@H](C)NC(=O)[C@H](CCCCN)NC(=O)[C@H](CCCCN)NC(=O)[C@H](CCCCN)NC(=O)[C@H](CCCCN)NC(=O)[C@H](CCCCN)NC(=O)[C@@H](N)CCCCN)C(=O)N[C@@H](C)C(=O)N[C@@H](Cc1ccccc1)C(N)=O [KKKKKKAAAAFWAAAAF]

MIC (Bacillus subtilis): 27.7 µM (≈ 64 µg/mL) | MIC [18]: 27.7 µM (≈ 64 µg/mL) | MIC (Enterobacter cloacae): ≥ 55.4 µM | MIC [4]: 6.93 µM (≈ 16 µg/mL) | MIC (Escherichia coli): 55.4 µM (≈ 128 µg/mL) | MIC [16]: 27.7 µM (≈ 64 µg/mL) | MIC (Pseudomonas aeruginosa): 3.46 µM (≈ 8 µg/mL) | MIC [19]: 0.866 µM (≈ 2 µg/mL) | MIC [7]: 1.73 µM (≈ 4 µg/mL) | MIC (Staphylococcus aureus): 55.4 µM (≈ 128 µg/mL)
Structure (SMILES): CC(C)C[C@H](NC(=O)[C@H](CCCCN)NC(=O)[C@H](CCCN=C(N)N)NC(=O)[C@H](Cc1ccccc1)NC(=O)[C@H](Cc1ccccc1)NC(=O)[C@H](CCCCN)NC(=O)[C@H](CCCCN)NC(=O)[C@H](Cc1ccccc1)NC(=O)[C@H](CCCN=C(N)N)NC(=O)[C@H](CCCCN)NC(=O)[C@@H](NC(=O)[C@@H](N)CC(C)C)C(C)C)C(=O)N[C@@H](CCCCN)C(=O)N[C@@H](CCCCN)C(=O)N[C@@H](CO)C(=O)N[C@H](C(=O)N[C@@H](CCCCN)C(=O)N[C@@H](CCCCN)C(N)=O)C(C)C [LVKRFKKFFRKLKKSVKK]

MIC (Bacillus subtilis): 14.7 µM (≈ 32 µg/mL) | MIC [18]: 14.7 µM (≈ 32 µg/mL) | MIC (Enterobacter cloacae): 14.7 µM (≈ 32 µg/mL) | MIC [4]: 117 µM (≈ 256 µg/mL) | MIC (Escherichia coli): 14.7 µM (≈ 32 µg/mL) | MIC [16]: 29.3 µM (≈ 64 µg/mL) | MIC (Pseudomonas aeruginosa): 1.83 µM (≈ 4 µg/mL) | MIC [19]: 0.917 µM (≈ 2 µg/mL) | MIC [7]: 117 µM (≈ 256 µg/mL) | MIC (Staphylococcus aureus): 58.7 µM (≈ 128 µg/mL)
Structure (SMILES): CC(C)C[C@H](NC(=O)[C@H](CCCCN)NC(=O)[C@H](CCCN=C(N)N)NC(=O)[C@H](Cc1ccccc1)NC(=O)[C@H](Cc1ccccc1)NC(=O)[C@H](CCCCN)NC(=O)[C@H](CCCCN)NC(=O)[C@H](Cc1ccccc1)NC(=O)[C@H](CCCN=C(N)N)NC(=O)[C@H](CCCCN)NC(=O)[C@@H](NC(=O)[C@@H](N)CC(C)C)C(C)C)C(=O)N[C@@H](CCCCN)C(=O)N[C@@H](CCCCN)C(=O)N[C@@H](CO)C(=O)N[C@H](C(=O)N[C@@H](CCCCN)C(N)=O)C(C)C [LVKRFKKFFRKLKKSVK]

MIC [20]: 13.3 µM (≈ 28.6 µg/mL) | MIC [21]: 16.7 µM (≈ 35.9 µg/mL) | MIC [22]: 23.3 µM (≈ 50 µg/mL) | MIC [23]: 13.3 µM (≈ 28.6 µg/mL) | MIC [24]: ≥ 133 µM
Structure (SMILES): CC(C)[C@H](NC(=O)[C@@H]1CCCN1C(=O)[C@@H]1CCCN1C(=O)[C@@H](NC(=O)[C@@H](N)Cc1ccc(O)cc1)C(C)C)C(=O)N[C@@H](CCC(N)=O)C(=O)N[C@@H](CCCCN)C(=O)N1CCC[C@H]1C(=O)N[C@@H](Cc1cnc[nH]1)C(=O)N1CCC[C@H]1C(=O)N[C@@H](CC(N)=O)C(=O)NCC(=O)N1CCC[C@H]1C(=O)N[C@@H](CCCCN)C(=O)N[C@@H](Cc1ccccc1)C(=O)N1CCC[C@H]1C(=O)N[C@H](C(=O)N[C@@H](Cc1ccccc1)C(=O)N1CCC[C@H]1C(=O)O)[C@@H](C)O [YVPPVQKPHPNGPKFPTFP]
